According to patent US11419869B2, “Dosage forms and regimens for amino acid compounds” (Pliant Therapeutics, Inc., priority 2019, dated 2022):

The compounds below were run against recombinant human integrin αvβ6 (Homo sapiens (Human), UniProt P06756+P18564) (assay: Solid Phase Integrin αvβ6 Binding Assay (Examples B1, B2)). Conditions: TGFβ1 LAP ligand, values given in four ranges, read-out: αvβ6 Inhibition IC50 (nM)-range.
Procedure, shortened: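 Plates coated with recombinant human αvβ6 (2 μg/mL) compete compound against recombinant TGFβ1 LAP (0.67 μg/mL) in TBS binding buffer with 0.5 mM MnCl2, 2 h at 25 °C. Bound LAP detected with biotin-anti-hLAP and peroxidase-streptavidin; IC50 by four-parameter logistic regression.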

recombinant human integrin αvβ6, sequence (P06756 31-992): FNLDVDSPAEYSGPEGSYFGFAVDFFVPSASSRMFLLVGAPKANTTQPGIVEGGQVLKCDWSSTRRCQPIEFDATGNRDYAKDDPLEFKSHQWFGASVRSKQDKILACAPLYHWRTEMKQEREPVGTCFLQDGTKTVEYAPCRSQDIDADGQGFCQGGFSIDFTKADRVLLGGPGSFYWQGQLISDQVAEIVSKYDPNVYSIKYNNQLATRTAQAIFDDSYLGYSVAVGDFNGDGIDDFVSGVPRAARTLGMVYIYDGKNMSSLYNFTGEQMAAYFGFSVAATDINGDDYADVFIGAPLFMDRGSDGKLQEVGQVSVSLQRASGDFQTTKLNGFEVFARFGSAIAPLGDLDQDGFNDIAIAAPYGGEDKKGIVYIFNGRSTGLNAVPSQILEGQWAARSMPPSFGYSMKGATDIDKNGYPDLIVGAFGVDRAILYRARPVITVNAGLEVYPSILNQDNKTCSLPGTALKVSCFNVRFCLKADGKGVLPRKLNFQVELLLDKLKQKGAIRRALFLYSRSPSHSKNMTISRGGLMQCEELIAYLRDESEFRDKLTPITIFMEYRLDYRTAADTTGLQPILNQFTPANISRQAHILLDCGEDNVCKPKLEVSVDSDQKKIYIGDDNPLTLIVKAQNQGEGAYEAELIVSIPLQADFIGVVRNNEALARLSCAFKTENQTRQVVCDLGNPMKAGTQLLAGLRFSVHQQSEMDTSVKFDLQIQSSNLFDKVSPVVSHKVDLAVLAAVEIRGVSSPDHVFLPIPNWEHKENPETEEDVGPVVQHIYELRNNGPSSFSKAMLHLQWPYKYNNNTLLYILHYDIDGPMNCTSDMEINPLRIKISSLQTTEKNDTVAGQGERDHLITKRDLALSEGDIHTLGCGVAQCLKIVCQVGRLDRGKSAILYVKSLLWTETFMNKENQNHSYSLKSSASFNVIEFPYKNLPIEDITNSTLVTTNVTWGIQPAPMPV
recombinant human integrin αvβ6, sequence (P18564 22-707): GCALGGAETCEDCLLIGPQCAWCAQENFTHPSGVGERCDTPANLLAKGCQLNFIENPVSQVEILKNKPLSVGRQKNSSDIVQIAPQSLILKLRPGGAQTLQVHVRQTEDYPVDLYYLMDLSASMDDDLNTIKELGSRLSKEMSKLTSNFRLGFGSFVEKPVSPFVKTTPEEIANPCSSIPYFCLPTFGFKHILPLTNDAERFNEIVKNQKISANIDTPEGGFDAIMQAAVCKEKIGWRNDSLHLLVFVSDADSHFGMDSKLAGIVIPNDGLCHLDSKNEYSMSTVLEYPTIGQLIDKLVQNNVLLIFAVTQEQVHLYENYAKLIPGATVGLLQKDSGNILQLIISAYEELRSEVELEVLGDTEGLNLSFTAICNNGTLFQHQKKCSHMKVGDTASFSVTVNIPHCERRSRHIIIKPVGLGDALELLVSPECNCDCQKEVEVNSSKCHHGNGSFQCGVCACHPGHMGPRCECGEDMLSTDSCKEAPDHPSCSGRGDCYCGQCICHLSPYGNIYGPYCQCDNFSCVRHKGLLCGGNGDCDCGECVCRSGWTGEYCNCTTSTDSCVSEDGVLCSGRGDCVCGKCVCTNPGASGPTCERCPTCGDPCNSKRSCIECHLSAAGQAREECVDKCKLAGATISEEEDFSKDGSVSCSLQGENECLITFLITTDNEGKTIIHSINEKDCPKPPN

| IC50 [nM] | SMILES |
| --- | --- |
| < 50 | CO[C@H](C)CN(CCCCc1ccc2c(n1)NCCC2)CC[C@H](Nc1ncncc1-c1ccccc1)C(=O)O [Compound 81, (S)-4-(((R)-2-methoxypropyl) (4-(5,6,7,8-tetrahydro-1,8-naphthyridin-2-yl)butyl)amino)-2-((5-phenylpyrimidin-4-yl)amino) butanoic acid] |
| < 50 | Cn1ncc2c(N[C@@H](CCN(CCCCc3ccc4c(n3)NCCC4)CCOc3ccccc3)C(=O)O)ncnc21 [Compound 82, (S)-2-((1-methyl-1H-pyrazolo[3,4-d]pyrimidin-4-yl)amino)-4-((2-phenoxyethyl) (4-(5,6,7,8-tetrahydro-1,8-naphthyridin-2-yl)butyl)amino) butanoic acid] |
| < 50 | O=C(O)[C@H](CCN(CCCCc1ccc2c(n1)NCCC2)CCOc1ccccc1)Nc1ncc(Br)cn1 [Compound 83, (S)-2-((5-bromopyrimidin-2-yl)amino)-4-((2-phenoxyethyl) (4-(5,6,7,8-tetrahydro-1,8-naphthyridin-2-yl)butyl)amino) butanoic acid] |
| > 1000 | Cn1ncc2c(N[C@@H](CCN(CCCCc3ccc4c(n3)NCCC4)CC(F)F)C(=O)O)ncnc21 [Compound 88, (S)-4-((2,2-difluoroethyl) (4-(5,6,7,8-tetrahydro-1,8-naphthyridin-2-yl)butyl)amino)-2-((1-methyl-1H-pyrazolo[3,4-d]pyrimidin-4-yl)amino) butanoic acid] |
| < 50 | O=C(O)[C@H](CCN(CCCCc1ccc2c(n1)NCCC2)CCOc1ccccc1)Nc1ncc(C(F)(F)F)cn1 [Compound 89, (S)-4-((2-phenoxyethyl) (4-(5,6,7,8-tetrahydro-1,8-naphthyridin-2-yl)butyl)amino)-2-((5-(trifluoromethyl)pyrimidin-2-yl)amino) butanoic acid] |
| < 50 | O=C(O)[C@H](CCN(CCCCc1ccc2c(n1)NCCC2)CCOc1ccccc1)Nc1ncnc2[nH]ncc12 [Compound 90, (S)-2-((1H-pyrazolo[3,4-d]pyrimidin-4-yl)amino)-4-((2-phenoxyethyl) (4-(5,6,7,8-tetrahydro-1,8-naphthyridin-2-yl)butyl)amino) butanoic acid] |
| < 50 | O=C(O)[C@H](CCN(CCCCc1ccc2c(n1)NCCC2)CCOc1ccccc1)Nc1cc(-n2cccn2)ncn1 [Compound 91, (S)-2-((6-(1H-pyrazol-1-yl)pyrimidin-4-yl)amino)-4-((2-phenoxyethyl) (4-(5,6,7,8-tetrahydro-1,8-naphthyridin-2-yl)butyl)amino) butanoic acid] |
| < 50 | O=C(O)[C@H](CCN(CCCCc1ccc2c(n1)NCCC2)CCOc1ccccc1)Nc1ccnc(C(F)(F)F)n1 [Compound 92, (S)-4-((2-phenoxyethyl) (4-(5,6,7,8-tetrahydro-1,8-naphthyridin-2-yl)butyl)amino)-2-((2-(trifluoromethyl)pyrimidin-4-yl)amino) butanoic acid] |
| < 50 | O=C(O)[C@H](CCN(CCCCc1ccc2c(n1)NCCC2)CCOc1ccccc1)Nc1cc(-c2ccccc2)ncn1 [Compound 93, (S)-4-((2-phenoxyethyl) (4-(5,6,7,8-tetrahydro-1,8-naphthyridin-2-yl)butyl)amino)-2-((6-phenylpyrimidin-4-yl)amino) butanoic acid] |
| < 50 | O=C(O)[C@H](CCN(CCCCc1ccc2c(n1)NCCC2)CCOc1ccccc1)Nc1nc(-c2cccnc2)nc2ccccc12 [Compound 94, (S)-4-((2-phenoxyethyl) (4-(5,6,7,8-tetrahydro-1,8-naphthyridin-2-yl)butyl)amino)-2-((2-(pyridin-3-yl)quinazolin-4-yl)amino) butanoic acid] |
| > 1000 | O=C(O)[C@H](CCN(CCCCc1ccc2c(n1)NCCC2)CC(F)F)Nc1ncc(C(F)(F)F)cn1 [Compound 95, (S)-4-((2,2-difluoroethyl) (4-(5,6,7,8-tetrahydro-1,8-naphthyridin-2-yl)butyl)amino)-2-((5-(trifluoromethyl)pyrimidin-2-yl)amino) butanoic acid] |
